How the values were obtained:
Anura [1] = assay: Displacement of (-)-[3H]alprenolol from adrenergic receptor purified from frog erythrocytes
Anura [2] = assay: Displacement of (-)-[3H]alprenolol from adrenergic receptor purified from frog erythrocytes relative to isoproterenol

`CCC(NC1CCCC1)C(O)c1ccc(O)c(O)c1` (centres undefined) was tested, and the pKb (Anura [1]) was 4.41 and the Intrinsic activity (Anura [2]) was 0.64.
Molecule `CC(C)(Cc1ccccc1)NCC(O)c1ccc(O)c(NS(C)(=O)=O)c1` (centres undefined) has a pKb (Anura [1]) of 7.85 and an Intrinsic activity (Anura [2]) of 0.27.
Molecule `CC(N)C(O)c1ccc(O)c(O)c1` (centres undefined) has a pKb (Anura [1]) of 4.55 and an Intrinsic activity (Anura [2]) of 0.87.
`CC(NCCc1ccc(O)cc1)C(O)c1ccc(O)cc1` (centres undefined) was tested, and the pKb (Anura [1]) was 5.06.
`CC(CCc1ccc(O)cc1)NCCc1ccc(O)c(O)c1` (centres undefined) showed a pKb (Anura [1]) of 4.62 and an Intrinsic activity (Anura [2]) of 0.25.
In the case of `NC[C@H](O)c1ccc(O)c(O)c1`, the pKb (Anura [1]) is reported as under 3.7.
With `CCNCC(O)c1cccc(O)c1` (centres undefined) the pKb (Anura [1]) was 4.66.
In the case of `CC(CCc1ccccc1)NC(C)C(O)c1ccc(O)cc1` (centres undefined), the pKb (Anura [1]) is reported as 6.74.
`CNCC(O)c1cccc(O)c1` (centres undefined) gave a pKb (Anura [1]) of 4.28.
`Oc1ccc(CCCNCCc2ccc(O)c(O)c2)cc1` showed a pKb (Anura [1]) of 4.64 and an Intrinsic activity (Anura [2]) of 0.17.
With `CC(Cc1ccc(O)cc1)NCC(O)c1ccc(O)c(O)c1` (centres undefined) the pKb (Anura [1]) was 6.17 and the Intrinsic activity (Anura [2]) was 1.1.
With `CNC(C)C(O)c1ccccc1` (centres undefined) the pKb (Anura [1]) was 5.04.
`Oc1ccc(CCNCCc2ccc(O)c(O)c2)cc1` was tested, and the pKb (Anura [1]) was 4.33 and the Intrinsic activity (Anura [2]) was 0.25.
`NC(CCO)C(O)c1ccccc1` (centres undefined) gave a pKb (Anura [1]) of 4.29.
`NCCc1ccc(O)c(O)c1` gave a pKb (Anura [1]) of under 3.7.
For `NCC(O)c1cccc(Cl)c1` (centres undefined), the pKb (Anura [1]) was 4.08.
In the case of `CC(Cc1ccc2c(c1)OCO2)NCC(O)c1ccc(O)c(O)c1` (centres undefined), the pKb (Anura [1]) is reported as 6.17 and the Intrinsic activity (Anura [2]) is reported as 1.1.
`NCC(O)c1ccc(O)cc1` (centres undefined) gave a pKb (Anura [1]) of under 3.7.
For `CNC[C@H](O)c1ccc(O)c(O)c1`, the pKb (Anura [1]) was 5.07 and the Intrinsic activity (Anura [2]) was 0.75.
Molecule `NCCc1ccc(O)cc1` has a pKb (Anura [1]) of under 3.7.
Work on `CCC(N)C(O)c1ccc(O)c(O)c1` (centres undefined) yielded a pKb (Anura [1]) of 4.74 and an Intrinsic activity (Anura [2]) of 0.71.
`CC(COc1ccccc1)NC(C)C(O)c1ccc(O)cc1` (centres undefined) was tested, and the pKb (Anura [1]) was 5.85.
`CC(N)C(O)c1cccc(O)c1` (centres undefined) was tested, and the pKb (Anura [1]) was 4.46.
With `COc1cccc(C(O)C(C)NC(C)C)c1` (centres undefined) the pKb (Anura [1]) was 5.11.
Molecule `CC(COc1ccccc1)NC(C)C(O)c1ccc(O)c(CS(=O)(=O)N(C)C)c1` (centres undefined) has a pKb (Anura [1]) of 7.12.
`CNCC(O)c1cccc(NS(C)(=O)=O)c1` (centres undefined) gave a pKb (Anura [1]) of 4.19.
In the case of `NCCc1ccccc1`, the pKb (Anura [1]) is reported as 3.7.
`CC(C)(Cc1ccc(O)cc1)NCC(O)c1ccc(O)c(O)c1` (centres undefined) was tested, and the pKb (Anura [1]) was 7.22 and the Intrinsic activity (Anura [2]) was 1.2.
